Measurements taken from BindingDB's records for doi:10.1021/np8001145 (Kaohsiung Medical University, 2008).

Molecular target: Xanthine dehydrogenase/oxidase (Homo sapiens, UniProt P47989)
Experiment: Inhibition of xanthine oxidase

Xanthine dehydrogenase/oxidase, sequence (P47989 whole entry): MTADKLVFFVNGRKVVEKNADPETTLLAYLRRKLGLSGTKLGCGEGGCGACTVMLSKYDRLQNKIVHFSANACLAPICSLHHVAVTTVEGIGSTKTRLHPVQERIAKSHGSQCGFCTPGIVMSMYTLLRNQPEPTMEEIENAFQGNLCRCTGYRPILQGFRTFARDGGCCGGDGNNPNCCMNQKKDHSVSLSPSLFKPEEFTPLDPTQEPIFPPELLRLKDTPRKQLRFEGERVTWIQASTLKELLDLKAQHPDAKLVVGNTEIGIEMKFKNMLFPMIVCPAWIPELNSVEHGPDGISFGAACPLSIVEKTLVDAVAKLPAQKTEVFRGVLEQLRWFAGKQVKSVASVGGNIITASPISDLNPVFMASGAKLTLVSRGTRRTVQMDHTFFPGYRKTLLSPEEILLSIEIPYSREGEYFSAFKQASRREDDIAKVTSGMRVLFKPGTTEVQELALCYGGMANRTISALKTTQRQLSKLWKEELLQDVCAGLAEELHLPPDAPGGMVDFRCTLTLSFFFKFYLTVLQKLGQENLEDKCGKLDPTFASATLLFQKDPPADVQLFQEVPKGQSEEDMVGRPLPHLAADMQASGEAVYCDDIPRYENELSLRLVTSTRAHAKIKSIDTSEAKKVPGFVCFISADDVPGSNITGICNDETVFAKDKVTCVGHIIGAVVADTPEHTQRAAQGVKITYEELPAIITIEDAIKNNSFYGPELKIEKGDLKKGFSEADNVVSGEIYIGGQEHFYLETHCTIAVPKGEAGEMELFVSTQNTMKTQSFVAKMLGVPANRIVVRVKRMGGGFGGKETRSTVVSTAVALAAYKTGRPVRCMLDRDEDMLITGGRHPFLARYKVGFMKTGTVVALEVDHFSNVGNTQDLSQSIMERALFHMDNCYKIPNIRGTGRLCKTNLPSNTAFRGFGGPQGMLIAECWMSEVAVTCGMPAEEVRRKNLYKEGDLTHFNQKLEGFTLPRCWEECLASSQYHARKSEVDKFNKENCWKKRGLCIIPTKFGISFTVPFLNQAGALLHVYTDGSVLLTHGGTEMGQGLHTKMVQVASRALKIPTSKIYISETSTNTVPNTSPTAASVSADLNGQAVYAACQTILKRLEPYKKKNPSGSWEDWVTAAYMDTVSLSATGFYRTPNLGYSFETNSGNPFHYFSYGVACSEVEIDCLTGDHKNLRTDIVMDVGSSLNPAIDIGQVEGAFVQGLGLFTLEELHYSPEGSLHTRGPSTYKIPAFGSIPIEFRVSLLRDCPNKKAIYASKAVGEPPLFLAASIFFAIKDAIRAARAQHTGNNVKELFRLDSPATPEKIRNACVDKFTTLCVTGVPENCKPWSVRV

CCC(C)C(=O)C1C(=O)[C@@](C)(CC=C(C)C)C(=O)[C@@]2(C[C@H]3[C@H](CC[C@@]3(C)O)[C@](C)(O)C2)C1=O (stereo partly specified)
IC50: 42.1 µM
